Assay results: patent US20070128217A1 (priority 2003, published 2007)

How the values were obtained:
[1] = tested on: rabbit serum obtained by immunizing a rabbit with the SARS-CoV strain Frankfurt 1; type: binding; parameters: Binding of a rabbit serum to linear peptides / Binding of a rabbit serum to looped peptides / Rabbit serum linear peptides / Rabbit serum looped peptides / Binding of a rabbit serum to linear peptides of protein N of SARS-CoV Urbani (Rabbit serum linear peptides) / Binding of a rabbit serum to looped/cyclic peptides of protein N of SARS-CoV Urbani (Rabbit serum looped peptides): unit not given here
[2] = tested on: recombinant human anti-SARS-CoV antibody 03-018; type: binding; parameters: Binding of antibody 03-018 to linear peptides of the N protein of SARS-CoV Urbani / Binding of antibody 03-018 to looped/cyclic peptides of the N protein of SARS-CoV Urbani: unit not given here
[3] = tested on: control sera (pooled serum of ten healthy LUMC hospital workers; commercial negative donor pooled serum from the Dutch bloodbank); type: binding, human; parameters: Binding of Control serum LUMC to linear peptides / Binding of Control serum Blood-bank to linear peptides / Binding of Control serum LUMC to looped peptides / Binding of Control Serum Blood-Bank to Looped peptides / Binding of Control serum LUMC to linear peptides of the protein M of SARS-CoV Urbani / Binding of Control serum Blood-bank to linear peptides of the protein M of SARS-CoV Urbani / Binding of Control serum LUMC to looped peptides of the protein M of SARS-CoV Urbani / Binding of Control Serum Blood-Bank to Looped peptides of the protein M of SARS-CoV Urbani: unit not given here
[4] = tested on: antibodies in sera from SARS patients (sera 1a, 1b, 2, 6, 37, 62, London, SARS-yellow, SARS-green); type: binding, human; parameters: Binding of serum 6 to linear peptides of protein X1 of SARS-CoV Urbani / Binding of serum 37 to linear peptides of protein X1 of SARS-CoV Urbani / Binding of serum 6 to looped/cyclic peptide (PEPSCAN-ELISA) / Binding of serum 37 to looped/cyclic peptide (PEPSCAN-ELISA) / Binding of serum 37 to looped/cyclic peptides of protein X1 of SARS-CoV Urbani / Binding of serum 6 to linear peptides of protein X2 / Binding of serum 37 to linear peptides of protein X2 / Binding of serum 37 to looped/cyclic peptides of protein X2 of SARS-CoV Urbani / Binding of serum 6 to linear peptides of protein M of SARS-CoV Urbani / Binding of serum 37 to linear peptides of protein M of SARS-CoV Urbani / Binding of serum 6 to looped/cyclic peptides of protein M of SARS-CoV Urbani / Binding of serum 37 to looped/cyclic peptides of protein M of SARS-CoV Urbani / Binding of serum 6 to linear peptides of protein X3 of SARS-CoV Urbani / Binding of serum 37 to linear peptides of protein X3 of SARS-CoV Urbani / Binding of serum 37 to looped/cyclic peptides of protein X3 of SARS-CoV Urbani / Binding of serum 6 to linear peptides of protein X4 of SARS-CoV Urbani / Binding of serum 37 to linear peptides of protein X4 of SARS-CoV Urbani / Binding of serum 37 to looped/cyclic peptides of protein X4 of SARS-CoV Urbani / Binding of serum 6 to linear peptides of protein X5 of SARS-CoV Urbani / Binding of serum 37 to linear peptides of protein X5 of SARS-CoV Urbani / Binding of serum 37 to looped/cyclic peptides of protein X5 of SARS-CoV Urbani / Binding of serum 6 to linear peptides of protein N of SARS-CoV Urbani / Binding of serum 37 to linear peptides of protein N of SARS-CoV Urbani / Binding of serum 6 to linear peptide (PEPSCAN-ELISA) / Binding of serum 1a to looped/cyclic peptides of protein N of SARS-CoV Urbani / Binding of serum 1b to looped/cyclic peptides of protein N of SARS-CoV Urbani / Binding of serum 2 to looped/cyclic peptides of protein N of SARS-CoV Urbani / Binding of serum 6 to looped/cyclic peptides of protein N of SARS-CoV Urbani / Binding of serum 37 to looped/cyclic peptides of protein N of SARS-CoV Urbani / Binding of serum 62 to looped/cyclic peptides of protein N of SARS-CoV Urbani / Binding of serum London to looped/cyclic peptides of protein N of SARS-CoV Urbani / Binding of serum SARS-green to looped/cyclic peptides of protein N of SARS-CoV Urbani: unit not given here

Sequence	Binding of a rabbit serum to linear peptides of protein N of SARS-CoV Urbani (Rabbit serum linear peptides) [1]	Binding of a rabbit serum to looped/cyclic peptides of protein N of SARS-CoV Urbani (Rabbit serum looped peptides) [1]	Binding of antibody 03-018 to linear peptides of the N protein of SARS-CoV Urbani [2]	Binding of antibody 03-018 to looped/cyclic peptides of the N protein of SARS-CoV Urbani [2]	Binding of Control Serum Blood-Bank to Looped peptides [3]	Binding of Control serum Blood-bank to linear peptides [3]	Binding of Control serum LUMC to linear peptides [3]	Binding of Control serum LUMC to looped peptides [3]	Binding of serum 1a to linear peptide (PEPSCAN-ELISA) [4]	Binding of serum 1a to looped/cyclic peptides of protein N of SARS-CoV Urbani [4]	Binding of serum 1b to linear peptide (PEPSCAN-ELISA) [4]	Binding of serum 1b to looped/cyclic peptides of protein N of SARS-CoV Urbani [4]	Binding of serum 2 to linear peptide (PEPSCAN-ELISA) [4]	Binding of serum 2 to looped/cyclic peptides of protein N of SARS-CoV Urbani [4]	Binding of serum 6 to looped/cyclic peptides of protein N of SARS-CoV Urbani [4]	Binding of serum 37 to looped/cyclic peptides of protein N of SARS-CoV Urbani [4]	Binding of serum 62 to looped/cyclic peptides of protein N of SARS-CoV Urbani [4]	Binding of serum London to looped/cyclic peptides of protein N of SARS-CoV Urbani [4]	Binding of serum SARS-green to looped/cyclic peptides of protein N of SARS-CoV Urbani [4]	Binding of serum SARS-yellow to looped/cyclic peptides of protein N of SARS-CoV Urbani [4]	further results
SRGNSRNSTPGSSRG	0.2	0.2	0.1	0.2	0.4	0.9	0.8	0.4	0.7	0.6	0.4	0.4	0.2	0.2	0.2	0.4	0.3	0.3	0.1	0.2	Binding of serum 6 to linear peptide (PEPSCAN-ELISA) [4]: 0.2; Binding of serum 37 to linear peptide (PEPSCAN-ELISA) [4]: 0.7; Binding of serum 62 to linear peptide (PEPSCAN-ELISA) [4]: 0.7; Binding of serum London to linear peptide (PEPSCAN-ELISA) [4]: 0.5; Binding of serum SARS-green to linear peptide (PEPSCAN-ELISA) [4]: 0.4; Binding of serum SARS-yellow to linear peptide (PEPSCAN-ELISA) [4]: 0.7
SRNSTPGSSRGNSPA	0.1	0.6	0.1	0.2	0.7	0.9	0.9	0.7	0.7	0.6	0.5	0.6	0.4	0.4	0.4	0.5	0.5	0.4	0.3	0.4	Binding of serum 6 to linear peptide (PEPSCAN-ELISA) [4]: 0.2; Binding of serum 37 to linear peptide (PEPSCAN-ELISA) [4]: 0.8; Binding of serum 62 to linear peptide (PEPSCAN-ELISA) [4]: 0.9; Binding of serum London to linear peptide (PEPSCAN-ELISA) [4]: 0.6; Binding of serum SARS-green to linear peptide (PEPSCAN-ELISA) [4]: 0.4; Binding of serum SARS-yellow to linear peptide (PEPSCAN-ELISA) [4]: 0.7
SRQLQNSMSGASADS	0.5	0.6	0.1	0.2						0.2		0.1		0.3	0.1	0.4	0.3	0.2	0.3	0.2	Control Serum Blood-Bank Looped peptides [3]: 0.5; Control serum Blood-bank linear peptides [3]: 0.8; Control serum LUMC linear peptides [3]: 0.7; Control serum LUMC looped peptides [3]: 0.3; Binding of serum 1a to linear peptides of protein N of SARS-CoV Urbani [4]: 0.2; Binding of serum 1b to linear peptides of protein N of SARS-CoV Urbani [4]: 0.1; Binding of serum 2 to linear peptides of protein N of SARS-CoV Urbani [4]: 0.2; Binding of serum 6 to linear peptides of protein N of SARS-CoV Urbani [4]: 0.2; Binding of serum 37 to linear peptides of protein N of SARS-CoV Urbani [4]: 0.8; Binding of serum 62 to linear peptides of protein N of SARS-CoV Urbani [4]: 0.6; Binding of serum London to linear peptides of protein N of SARS-CoV Urbani [4]: 0.6; Binding of serum SARS-green to linear peptides of protein N of SARS-CoV Urbani [4]: 0.5; Binding of serum SARS-yellow to linear peptides of protein N of SARS-CoV Urbani [4]: 0.5
SRSSSRSRGNSRNST	0.1	0.3	0.1	0.2	0.6	0.7	0.7	0.6	0.2	0.3	0.1	0.2	0.2	0.3	0.3	0.5	0.4	0.4	0.2	0.4	Binding of serum 6 to linear peptide (PEPSCAN-ELISA) [4]: 0.2; Binding of serum 37 to linear peptide (PEPSCAN-ELISA) [4]: 0.4; Binding of serum 62 to linear peptide (PEPSCAN-ELISA) [4]: 0.6; Binding of serum London to linear peptide (PEPSCAN-ELISA) [4]: 0.4; Binding of serum SARS-green to linear peptide (PEPSCAN-ELISA) [4]: 0.2; Binding of serum SARS-yellow to linear peptide (PEPSCAN-ELISA) [4]: 0.7
